PMC9415608, “Design, Synthesis and Biological Investigation of 2-Anilino Triazolopyrimidines as Tubulin Polymerization Inhibitors with Anticancer Activities” (Pharmaceuticals, 2022)

Assays:
HeLa cells = assay: Cell cycle analysis by flow cytometry (PI); assay type: cell-based, human
Method: For these experiments, HeLa cells were used, which were seeded in 6-well plates at a concentration of 5 × 10^5/well in a final volume of 2 mL culture medium. The cells were then treated with the test compounds for 24 h at the indicated concentrations. After this incubation period, the cells were detached with trypsin-EDTA and harvested by centrifugation. The pellet thus obtained was fixed in 70% ice-cold ethanol.
After this incubation period, the cells were detached with trypsin-EDTA and harvested by centrifugation. The pellet thus obtained was fixed in 70% ice-cold ethanol for at least 1 h. The cells thus fixed were treated with a 0.1% v/v solution of Triton_X-100 in phosphate buffered saline (PBS) containing RNAseA and propidium iodide (PI) at the final concentration of 0.02 mg/mL. The cells were incubated at room temperature for 30 min and then analyzed on a Cytomic FC500 flow cytometer (Beckman Coulter) in the FL3 channel. DNA histograms were analyzed using MultiCycle for Windows (Phoenix Flow Systems, San Diego, CA, USA).

cdc2 (Y15) = assay: Western blot analysis; assay type: cell-based, human; settings: HeLa, 24 h
Method: (§1) Hela cells treated with the test compounds were harvested by centrifugation and then lysed with 0.1% (v/v) Triton X-100 containing RNase A at 0 °C. The protein content of the solutions was measured and analyzed as described previously. The antibodies directed against cyclin B, cdc2 (Y15), ATR,Bcl-2, cleaved caspase-9 (D330) and actin were purchased from Cell Signaling. The membranes were visualized using ECL select (GE Healthcare, Uppsal, Sweden), and images were acquired using an Uvitec-Alliance imaging system.

ATR = assay: Western blot analysis; assay type: cell-based, human; settings: HeLa, 24 h
Method: as §1

cyclin B = assay: Western blot analysis; assay type: cell-based, human; settings: HeLa, 24 h
Method: as §1

cleaved caspase-9 (D330) = assay: Western blot analysis; assay type: cell-based, human; settings: HeLa, 24 h, 25 and 50 nM
Method: as §1

Bcl-2 = assay: Western blot analysis; assay type: cell-based, human; settings: HeLa, 24 h
Method: as §1

[1] = system: Wild-type AB zebrafish embryos; assay: Drug toxicity assessment on zebrafish embryos; assay type: in vivo, Zebrafish (Danio rerio); settings: 6 hpf to 72 hpf
Method: Zebrafish (Danio rerio) were obtained, staged and raised as described previously and maintained according to the OPBA of the Istituto di Ricerca Pediatrica guidelines. All procedures were conducted following the recommendations and the guidelines of the Animal Use Ethics Committee concerning the protection of animals used for scientific purposes.
Wild-type AB zebrafish embryos were treated with chemicals from shield stage (6 hpf) to larval stage (72 hpf) in a 12-well plate, by adding 20 larvae/well for each experimental condition. The zebrafish embryos were treated with compound 3d at the concentration of 30 nm and 300 nM. These concentrations were selected on the basis of the IC50 found above in HeLa cells. The drugs were added directly to the fish water diluted directly from the stock solution in DMSO. […] Subsequently, the treated embryos were kept at a constant temperature (28.5 °C). Embryos are monitored daily through a stereo microscope (Nikon SMZ745T; Nikon, Japan) and the morphological changes as well as the number of dead embryos were evaluated and recorded.

COc1cc(-c2ccnc3nc(Nc4ccc(C)cc4)nn23)cc(OC)c1OC [Compound 3d, N-(p-Tolyl)-7-(3,4,5-trimethoxyphenyl)-[1,2,4]triazolo[1,5-a]pyrimidin-2-amine]
concentration at which increase in G2/M cells was evident (HeLa cells; 24 h): 25 nM | effect on cell cycle (G2/M) (HeLa cells; 24 h, 10, 25 or 50 nM): significant G2/M arrest in a concentration-dependent manner | cdc2 phosphorylation (Y15) (cdc2 (Y15)): significant reduction in cdc2 phosphorylation (Y15) | ATR phosphorylation (Ser428) (ATR): considerable increase in ATR phosphorylation (Ser428) | cyclin B expression (cyclin B): increase in cyclin B expression | caspase-9 cleavage (cleaved caspase-9 (D330)): appearance of the cleaved fragment of caspase-9 | Bcl-2 expression (Bcl-2): reduction in Bcl-2 expression starting at 10 nM | toxicity to zebrafish embryos ([1]; 30 nM in fish water): no morphological abnormalities or embryonic lethality | toxicity to zebrafish embryos ([1]; 300 nM in fish water, edema re-absorbed within the next 24 h): small yolk sac edema in the majority of 48 hpf embryos
